Data published in ChEMBL document CHEMBL1122381, “Synthesis and antitumor activity of 7- and 9-(6'-deoxy-alpha-L-talofuranosyl) hypoxanthine and 9-(6'-deoxy-alpha-L-talofuranosyl)-6-thiopurine” (1983).
The source made the active and inactive calls. No cut-off for these calls is given here.

Experiments:
[1] = molecular target: T1, Purine nucleoside phosphorylase (Bos taurus) (UniProt P55859); test: Antitumor activity by inhibiting purine nucleoside phosphorylase (PNPase) enzyme; NA means inactive.
T1 sequence (whole entry): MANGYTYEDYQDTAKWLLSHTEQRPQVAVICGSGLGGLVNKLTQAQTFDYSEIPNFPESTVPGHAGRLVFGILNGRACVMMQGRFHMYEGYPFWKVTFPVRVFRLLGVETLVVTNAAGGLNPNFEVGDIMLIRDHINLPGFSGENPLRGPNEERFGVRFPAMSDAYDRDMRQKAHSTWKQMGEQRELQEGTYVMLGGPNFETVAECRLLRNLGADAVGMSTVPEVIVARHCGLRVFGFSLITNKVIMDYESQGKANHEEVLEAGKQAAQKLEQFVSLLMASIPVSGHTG

L1210 [2] = test: Antitumor activity against L1210 tumor cells in vivo and the value is expressed as T / C ([…]) at a dose of 10000 ug/kg; format: functional, Mus musculus
L1210 [3] = test: Antitumor activity against L1210 tumor cell growth in vitro and the value is expressed as % inhibition at a dose of 1 ug/mL; format: functional; conditions: Mus musculus
L1210 [4] = test: Antitumor activity against L1210 tumor cells tested in vivo; NA means inactive.; format: functional, organism-based; conditions: Mus musculus

Structure (SMILES) | inhibition [1] | T/C (L1210 [2]) | inhibition at 1 µg/mL (L1210 [3]) | T/C (L1210 [4])
CC(O)[C@H]1O[C@@H](n2cnc3c(O)ncnc32)[C@H](O)[C@@H]1O (stereo not given in full) | inactive | – | – | –
CC(O)[C@H]1O[C@@H](n2cnc3c(S)ncnc32)[C@H](O)[C@@H]1O (stereo not given in full) | inactive | 146 | 50% | –
CC(O)[C@H]1O[C@@H](n2cnc3ncnc(O)c32)[C@H](O)[C@@H]1O (stereo not given in full) | – | – | – | inactive
